One series concerns normal canines. The experiment in a line: In vivo renal function, peptide infusion in normal canines. Set-up: species or system canine. As to conditions: for RBF / GFR / DFRNa (distal fractional reabsorption of Na+) / PFRNa (proximal fractional reabsorption of Na+) / MAP: SEM.
The subject of another series is neprilysin (NEP). As to conditions: cited from earlier work.
Where [1] appears, read: Post-I (after 30-min washout), lithium clearance, mean ± SEM.
[2] abbreviates: Pre-I (prior to infusion, baseline), lithium clearance technique, mean ± SEM.
[3] abbreviates: normal canines, infusion 32 mmol/kg/min.

“And” between values parts separate entries of the source, which are not always exact repeats. Identical values can stand only once.

Regarding “CNP: native C-type natriuretic peptide, 22 amino acids, selective pGC-B activator”, the RBF in the series on normal canines (30 min I (16th-45th min of infusion, 32 mmol/kg/min), mean ± SEM) came to 294 ± 31 mL/min; in the series on normal canines (60 min I (46th-75th min of infusion, 32 mmol/kg/min), mean ± SEM), 278 ± 29 mL/min; in the series with normal canines (Post-I (after 30-min washout), mean ± SEM), 270 ± 25 mL/min; in the series on normal canines (Pre-I (prior to infusion, baseline), electromagnetic flow probe, mean ± SEM), 273 ± 26 mL/min. Moreover, the GFR in the series with normal canines (Post-I (after 30-min washout), inulin clearance, mean ± SEM) turned out to be 48.8 ± 5.6 mL/min; in the series with normal canines (dog, in vivo), 52.3 ± 5.1 mL/min. Besides, the figures for the “DFRNa (distal fractional reabsorption of Na+)” value with normal canines (setting [1]) and in the series on normal canines (setting [2]) were 97±0.8% and 98±0.6%, respectively. The “PFRNa (proximal fractional reabsorption of Na+)” value with normal canines (setting [1]) came to 73±2%; with normal canines (setting [2]), 80±3%. Moreover, the MAP in the series with normal canines (dog, in vivo, iv) was 127±4 mmHg and 128±4 mmHg; in the series with normal canines (dog, in vivo), 123±4 mmHg and 128±4 mmHg. Also, the “net renal generation of cGMP (in words)” value with normal canines (setting [3]) is “unchanged”. Also, in the series on normal canines (setting [3]), the “plasma cGMP (in words)” value was “modestly increased”. Also, the “urinary cGMP excretion (in words)” value in the series with normal canines (setting [3]) is reported as “unchanged”. In addition, in the series with neprilysin (NEP), the “susceptibility to enzymatic degradation by NEP (in words)” value was “highly susceptible”.

Source of the values: PMC4853826 (European heart journal. Cardiovascular pharmacotherapy, 2015).
